Results published in US8183212B2, “Compound having GPR54 agonistic activity” (Kyoto University, priority 2006, dated 2012).
Square brackets hold non-standard residues; d marks the D form. Peptide text beside a SMILES is read from it. 2Nal = N[C@@H](Cc1ccc2ccccc2c1)C(=O)O; 4Amb = NCc1ccc(C(=O)O)cc1; 4Abz = Nc1ccc(C(=O)O)cc1

Biological target: GPR54 (Homo sapiens, UniProt Q969F8)
Assay: GPR54 agonist activity by Flipr assay (increase in intracellular Ca2+ measured as fluorescence intensity)
Assay type: cell-based
Settings: for % activity: fluorescence intensity with 10^-8 M pentapeptide derivative relative to 10^-6 M metastin (45-54) as 100%; for Q (=EC50 (compound)/EC50 [metastin (45-54)]): specific activity value relative to metastin (45-54)
Procedure: A compound having GPR54 agonist activity (pentapeptide derivative) was prepared according to a conventional Fmoc solid phase synthesis process using Rink-amide resin (Fields G B, Noble R L., Int J Pept Protein Res. 1990; 35, 161-214.). The GPR54 agonist activity of the obtained pentapeptide derivative was evaluated according to Flipr assay method wherein an increase in the intracellular Ca^2+ ion concentration due to receptor stimulation is measured as the fluorescence intensity. […] Hereafter, the agonist activity was mainly compared based on the Q value.

Chain of GPR54 (Q969F8 whole entry, species assumed): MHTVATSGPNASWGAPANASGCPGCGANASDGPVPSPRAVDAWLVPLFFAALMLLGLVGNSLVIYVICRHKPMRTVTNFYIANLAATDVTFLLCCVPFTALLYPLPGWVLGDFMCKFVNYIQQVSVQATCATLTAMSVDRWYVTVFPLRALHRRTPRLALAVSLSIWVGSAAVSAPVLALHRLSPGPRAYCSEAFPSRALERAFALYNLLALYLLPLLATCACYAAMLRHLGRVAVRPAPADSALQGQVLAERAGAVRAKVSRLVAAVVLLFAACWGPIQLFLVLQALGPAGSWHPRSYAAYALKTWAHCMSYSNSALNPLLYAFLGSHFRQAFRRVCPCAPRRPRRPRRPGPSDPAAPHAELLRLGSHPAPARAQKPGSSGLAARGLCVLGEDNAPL

Compound | % activity | also measured
CC(C)C[C@H](NC(=O)CNC(=O)[C@H](Cc1ccccc1)NC(=O)c1ccc(CNC(=N)N)cc1)C(=O)N[C@@H](CCCNC(=N)N)C(=O)N[C@@H](Cc1c[nH]c2ccccc12)C(N)=O [Compound 2, reference compound] | 94% | –
CC(C)C[C@H](NC(=O)CNC(=O)[C@H](Cc1ccccc1)NC(=O)c1ccc([N+](=O)[O-])cc1)C(=O)N[C@@H](CCCNC(=N)N)C(=O)N[C@@H](Cc1c[nH]c2ccccc12)C(N)=O [Compound 37, 4-nitrobenzoyl-Phe-Gly-Leu-Arg-Trp-NH2] | 94% | –
CC(C)C[C@H](NC(=O)CNC(=O)[C@H](Cc1ccccc1)NC(=O)c1ccc(CN(Cc2ccccn2)Cc2ccccn2)cc1)C(=O)N[C@@H](CCCNC(=N)N)C(=O)N[C@@H](Cc1c[nH]c2ccccc12)C(N)=O [Compound 1, reference compound] | 89% | –
CC(C)C[C@H](NC(=O)CNC(=O)[C@H](Cc1ccccc1)NC(=O)c1ccc(Cl)cc1)C(=O)N[C@@H](CCCNC(=N)N)C(=O)N[C@@H](Cc1c[nH]c2ccccc12)C(N)=O [Compound 38, 4-chlorobenzoyl-Phe-Gly-Leu-Arg-Trp-NH2] | 92% | –
CC(=O)NCc1ccc(C(=O)N[C@@H](Cc2ccccc2)C(=O)NCC(=O)N[C@@H](CC(C)C)C(=O)N[C@@H](CCCNC(=N)N)C(=O)N[C@@H](Cc2c[nH]c3ccccc23)C(N)=O)cc1 [Compound 28, N-acetyl-4-(aminomethyl)benzoyl-Phe-Gly-Leu-Arg-Trp-NH2] (Ac-[4Amb]FGLRW-NH2) | 100% | –
CC(C)C[C@H](NC(=O)CNC(=O)[C@H](Cc1ccccc1)NC(=O)c1c[nH]cn1)C(=O)N[C@@H](CCCNC(=N)N)C(=O)N[C@@H](Cc1c[nH]c2ccccc12)C(N)=O [Compound 26, 4-imidazolylcarbonyl-Phe-Gly-Leu-Arg-Trp-NH2] | 88% | –
CC(C)C[C@H](NC(=O)CNC(=O)[C@H](Cc1ccccc1)NC(=O)c1ccc(F)cc1)C(=O)N[C@@H](CCCNC(=N)N)C(=O)N[C@@H](Cc1c[nH]c2ccccc12)C(N)=O [Compound 39, 4-fluorobenzoyl-Phe-Gly-Leu-Arg-Trp-NH2] | 96% | –
CC(C)C[C@H](NC(=O)CNC(=O)[C@H](Cc1ccccc1)NC(=O)[C@H](CO)NC(=O)[C@H](CC(N)=O)NC(=O)[C@H](Cc1c[nH]c2ccccc12)NC(=O)[C@H](CC(N)=O)NC(=O)[C@@H](N)Cc1ccc(O)cc1)C(=O)N[C@@H](CCCNC(=N)N)C(=O)N[C@@H](Cc1ccccc1)C(N)=O [Metastin (45-54), reference compound] | 100% | EC50: 0.36 to 1.1 nM; Q (=EC50 (compound)/EC50 [metastin (45-54)]): 1.0
CC(C)C[C@H](NC(=O)CNC(=O)[C@H](Cc1ccc2ccccc2c1)NC(=O)c1ccc(CN)cc1)C(=O)N[C@@H](CCCNC(=N)N)C(=O)N[C@@H](Cc1c[nH]c2ccccc12)C(N)=O [Compound 8, 4-(aminomethyl)benzoyl-Nal(2)-Gly-Leu-Arg-Trp-NH2] (H-[4Amb][2Nal]GLRW-NH2) | 89% | agonist activity, times stronger than compound 6 (compared with compound 6): about 4 times
CC(C)C[C@H](NC(=O)CNC(=O)[C@H](Cc1ccccc1)NC(=O)c1ccc(O)cc1)C(=O)N[C@@H](CCCNC(=N)N)C(=O)N[C@@H](Cc1c[nH]c2ccccc12)C(N)=O [Compound 30, 4-hydroxybenzoyl-Phe-Gly-Leu-Arg-Trp-NH2] | 95% | –
CC(C)C[C@H](NC(=O)CNC(=O)[C@H](Cc1ccccc1)NC(=O)c1ccc(CN)cc1)C(=O)N[C@@H](CCCNC(=N)N)C(=O)N[C@@H](Cc1c[nH]c2ccccc12)C(N)=O [Compound 6, 4-(aminomethyl)benzoyl-Phe-Gly-Leu-Arg-Trp-NH2] (H-[4Amb]FGLRW-NH2) | 97% | Q (=EC50 (compound)/EC50 [metastin (45-54)]): 3.4
CC(C)C[C@H](NC(=O)CNC(=O)[C@H](Cc1ccccc1)NC(=O)c1ccc[nH]1)C(=O)N[C@@H](CCCNC(=N)N)C(=O)N[C@@H](Cc1c[nH]c2ccccc12)C(N)=O [Compound 27, 2-pyrrolylcarbonyl-Phe-Gly-Leu-Arg-Trp-NH2] | 96% | –
CC(C)C[C@H](NC(=O)CNC(=O)[C@H](Cc1ccccc1)NC(=O)c1ccc(N)cc1)C(=O)N[C@@H](CCCNC(=N)N)C(=O)N[C@@H](Cc1c[nH]c2ccccc12)C(N)=O [Compound 20, 4-aminobenzoyl-Phe-Gly-Leu-Arg-Trp-NH2] (H-[4Abz]FGLRW-NH2) | 90% | –
